Experimental data reported in PubChem BioAssay AID2060513 (Molecular Pharmacology Branch, DTP, NCI, 2025).

Test system: 299254-011-R-J1-PDC complex spheroids viability
Assay: Anticancer human tumor 299254-011-R-J1-PDC patient-derived melanoma cell line growth inhibition [GQUAD]
Conditions: for IC50: curve of first compound; for viability, T/C: stronger effect = lower value
Outline: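 Viability of tumor cells grown as complex spheroids with endothelial and stromal cells, exposed to drug combinations. Top concentration at or near clinical Cmax (else 10 microM), diluted in half-log increments.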

[1] = second compound 0.0316 µM, first compound 0.0316 µM
[2] = second compound 0.0316 µM, first compound 0.1 µM
[3] = second compound 0.0316 µM, first compound 0.316 µM
[4] = second compound 0.0316 µM, first compound 1 µM
[5] = second compound 0.0316 µM, first compound 3.16 µM
[6] = second compound 0.0316 µM, first compound 10 µM
[7] = second compound 0.1 µM, first compound 0.0316 µM
[8] = second compound 0.1 µM, first compound 0.1 µM
[9] = second compound 0.1 µM, first compound 0.316 µM
[10] = second compound 0.1 µM, first compound 1 µM
[11] = second compound 0.1 µM, first compound 3.16 µM
[12] = second compound 0.1 µM, first compound 10 µM
[13] = second compound 0.316 µM, first compound 0.0316 µM
[14] = second compound 0.316 µM, first compound 0.1 µM
[15] = second compound 0.316 µM, first compound 0.316 µM
[16] = second compound 0.316 µM, first compound 1 µM
[17] = second compound 0.316 µM, first compound 3.16 µM
[18] = second compound 0.316 µM, first compound 10 µM
[19] = second compound 1 µM, first compound 0.0316 µM
[20] = second compound 1 µM, first compound 0.1 µM
[21] = second compound 1 µM, first compound 0.316 µM
[22] = second compound 1 µM, first compound 1 µM
[23] = second compound 1 µM, first compound 3.16 µM
[24] = second compound 1 µM, first compound 10 µM
[25] = second compound 3.16 µM, first compound 0.0316 µM
[26] = second compound 3.16 µM, first compound 0.1 µM
[27] = second compound 3.16 µM, first compound 0.316 µM
[28] = second compound 3.16 µM, first compound 1 µM
[29] = second compound 3.16 µM, first compound 3.16 µM
[30] = second compound 3.16 µM, first compound 10 µM
[31] = second compound 10 µM, first compound 0.0316 µM
[32] = second compound 10 µM, first compound 0.1 µM
[33] = second compound 10 µM, first compound 0.316 µM
[34] = second compound 10 µM, first compound 1 µM
[35] = second compound 10 µM, first compound 3.16 µM
[36] = second compound 10 µM, first compound 10 µM
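Also: spheroids exposed to the agents for seven days before readout.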
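For viability, T/C in this document: percent viability relative to DMSO vehicle control wells = 100%.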

For `CC(C)n1c(=O)n(C)c2cnc3cc(F)c(-c4ccc(OCCCN5CCCCC5)nc4)cc3c21` + Cc1[nH]c2ccc(F)cc2c1-c1nc2c3cccnc3c3ncccc3c2[nH]1, the IC50 (second compound 0.0316 µM) was > 10 µM, the IC50 (second compound 0.1 µM) was > 10 µM and the IC50 (second compound 0.316 µM) was > 10 µM. For the same compound, the IC50 (second compound 1 µM) was > 10 µM, the IC50 (second compound 3.16 µM) was > 10 µM and the IC50 (second compound 10 µM) was 9.86 µM. For the same compound, the viability, T/C [1] was 90.2%, the viability, T/C [2] was 94.3% and the viability, T/C [3] was 98.1%. The viability, T/C [4] was 75.2%, the viability, T/C [5] was 86.7% and the viability, T/C [6] was 54.3%. The viability, T/C [7] was 85.9%, the viability, T/C [8] was 103% and the viability, T/C [9] was 124%. The viability, T/C [10] was 96.5%, the viability, T/C [11] was 83.1% and the viability, T/C [12] was 58.3%. It also gave a viability, T/C [13] of 106%, a viability, T/C [14] of 98.8% and a viability, T/C [15] of 105%. It also gave a viability, T/C [16] of 94.2%, a viability, T/C [17] of 84.4% and a viability, T/C [18] of 52.4%. It also gave a viability, T/C [19] of 83%, a viability, T/C [20] of 97.7% and a viability, T/C [21] of 118%. The viability, T/C [22] was 115%, the viability, T/C [23] was 98.8% and the viability, T/C [24] was 58.1%. It also gave a viability, T/C [25] of 89.9%, a viability, T/C [26] of 107% and a viability, T/C [27] of 89.5%. It also gave a viability, T/C [28] of 111%, a viability, T/C [29] of 94.4% and a viability, T/C [30] of 56.9%. It also gave a viability, T/C [31] of 96.8%, a viability, T/C [32] of 107% and a viability, T/C [33] of 98%. It also gave a viability, T/C [34] of 84.8%, a viability, T/C [35] of 96.8% and a viability, T/C [36] of 49.5%.
In the case of `C#Cc1c(F)ccc2cc(O)cc(-c3ncc4c(N5CC6CCC(C5)N6)nc(OCC56CCCN5CC(F)C6)nc4c3F)c12` (centres undefined) + CN(C)c1ccc(Nc2c3ccc(NC(=O)CCN4CCCC4)cc3nc3cc(NC(=O)CCN4CCCC4)ccc23)cc1, the IC50 (second compound 0.0316 µM) is reported as > 10 µM, the IC50 (second compound 0.1 µM) is reported as > 10 µM and the IC50 (second compound 0.316 µM) is reported as > 10 µM. For the same compound, the IC50 (second compound 1 µM) was > 10 µM, the IC50 (second compound 3.16 µM) was > 10 µM and the IC50 (second compound 10 µM) was > 10 µM. For the same compound, the viability, T/C [1] was 85.8%, the viability, T/C [2] was 92.7% and the viability, T/C [3] was 101%. It also gave a viability, T/C [4] of 105%, a viability, T/C [5] of 104% and a viability, T/C [6] of 78.9%. The viability, T/C [7] was 114%, the viability, T/C [8] was 96.4% and the viability, T/C [9] was 94.8%. For the same compound, the viability, T/C [10] was 101%, the viability, T/C [11] was 85.2% and the viability, T/C [12] was 66%. It also gave a viability, T/C [13] of 113%, a viability, T/C [14] of 114% and a viability, T/C [15] of 82.2%. It also gave a viability, T/C [16] of 79.3%, a viability, T/C [17] of 93.5% and a viability, T/C [18] of 77%. It also gave a viability, T/C [19] of 85.4%, a viability, T/C [20] of 105% and a viability, T/C [21] of 76.7%. For the same compound, the viability, T/C [22] was 99.7%, the viability, T/C [23] was 89.2% and the viability, T/C [24] was 83.9%. It also gave a viability, T/C [25] of 110%, a viability, T/C [26] of 123% and a viability, T/C [27] of 97.3%. The viability, T/C [28] was 112%, the viability, T/C [29] was 73.6% and the viability, T/C [30] was 69.9%. The viability, T/C [31] was 100%, the viability, T/C [32] was 94.8% and the viability, T/C [33] was 101%. The viability, T/C [34] was 87.8%, the viability, T/C [35] was 85.4% and the viability, T/C [36] was 72.5%.
